# In patent US12447135B2 (University of South Florida, priority 2021, dated 2025):
# What was measured:
# [1] = test system: proteasome; test: Proteasome activity assay in C. elegans; format: in vivo; settings: C. elegans (CL2006)
# Method: The CL2006 strain, SK-N-SH cells, and brain tissues were sonicated in a lysis buffer (150 mM NaCl, 50 mM HEPES, 2 mM DTT, 20 mM NaF, 5 mM EDTA, 2.5 mM sodium pyrophosphate, 1 mM sodium orthovanadate, and 1 mM α-glycerophosphoric acid) and then centrifuged at 15,000 g at 4° C. for 15 min. Total protein was assayed using BCA kit and 20 μg protein was mixed with 140 μM suc-leu-leu-val-tyr-7-amino-4-methylcou-marin (AMC) in a proteasome activity assay buffer (150 mM NaCl, 50 mM HEPES [pH 7.4], 5 mM ATP, and 5 mM EDTA), and then the fluorescence (excitation 380 nm and emission 460 nm) was measured every 10 min over 3 h using a microplate reader. The assay was performed with and without the proteasome inhibitor MG132 (10 μM).
# [2] = test system: SK-N-SH cells; test: Senescence β-galactosidase staining; format: cell-based, human; settings: Aβ-treated cells, Fenchol
# Method: After overnight incubation, Aβ 25-32 (25 μM) peptide was added to the cells for 4 h. The Senescence β-Galactosidase Staining Kit (Cell Signaling, USA) was used for the detection of the expression of β-galactosidase activity, following the manufacturer's instructions.
# [3] = test system: SK-N-SH cells; test: Aβ accumulation in SK-N-SH cells (western blot); format: cell-based, human; settings: vs Aβ-only treated controls, FFAR2 dependent
# Method: (§1) To determine the FFAR2 signal activating property of selected compounds, SK-N-SH cells were treated with 10 μM of shortlisted compounds for 30 min at 37° C. and harvested for total protein extraction. Cells were harvested after 30 min of incubation because ERK1/2 phosphorylation upon FFAR2 activation is a quick event (Jiao et al., 2002; Bhattacharjee et al., 2010). Total protein from the cells was extracted using a lysis buffer [consisting of 10 mmol/L Tris (pH 7.6), 150 mmol/L NaCl, 10 mmol/L Sodium orthovanadate, 10 mmol/L Sodium Pyrophosphate, 100 mmol/L Sodium fluoride, 1 mmol/L EDTA, 1 mmol/L EGTA, 1% Triton X-100, 0.5% NP-40 and a cocktail of protease inhibitors (Roche); Yadav et al., 2011, 2017; Ahmadi et al., 2019, 2020a]. After sonication, cell extracts were centrifuged at 8,000×g for 10 min at 4° C., and the supernatant was separated in a fresh tube. The total protein concentration of the supernatant was measured using a BCA protein assay kit. […] Band densities were also quantified using NIH ImageJ software. β-actin was used as an internal control.
# [4] = test system: C. elegans overexpressing human Aβ; test: Aβ accumulation in C. elegans (thioflavin S staining, western blot); format: in vivo; settings: CL2006 worms overexpressing human Aβ, vs DMSO controls
# Method: as §1
# Then, the worm bodies were permeabilized in 1% Triton X-100, 125 mM Tris (pH 7.4), and 5% fresh β-mercaptoethanol. […] A total of 20 worms were counted from each group.
# [5] = test system: C. elegans CL4176; test: Paralysis assay in C. elegans CL4176; format: in vivo; settings: CL4176 worms, 10 μM, vs non-treated controls
# Method: For paralysis assays, synchronized eggs of CL4176 were kept at 16° C. for 48 h, and the worms were transferred onto NGM plates. […] Counting was performed at 2 h intervals, typically after 14 h, at 23° C., and until the last worm became paralyzed. […] Each C. elegans experiment was conducted with at least 100 worms.
# [6] = test system: FFAR2 signaling; test: Intracellular calcium assay in SK-N-SH cells; format: cell-based, human; settings: 10 μM
# Method: FFAR2 signaling activation increases intracellular calcium (Falomir-Lockhart et al., 2019). To further determine the activation potential of selected compounds for this signaling, we plated the SK-N-SH cells (1.25×10^3 cells per well) into a dark 96-well plate for 24 h. […] Also, 0.01 M EDTA (Sigma) and […] carbachol were used as negative and additional positive controls, respectively. After 15 min, the cells were treated with […] Direct™ calcium reagent along with […] probenecid and further incubated at 37° C. for 30 min. The fluorescence was measured with excitation at 494 nm and emission at 516 nm using a microplate reader.
# [7] = test system: C. elegans; test: Lifespan assay in C. elegans; format: in vivo; settings: 10 μM
# Method: C. elegans was used as a model for determining the impact of selected compounds on aging and AD-like phenotypes. The wild-type (N2) and CL2122 (dvls15 [9pPD30.38) unc-54(vector)+(pCL26)mtl-2::GFP]) were propagated at 20° C. AD transgenic worms model CL2006 (dvls [pCL12(unc-54/human abeta peptide 1-42 minigene)+pRF4), CL4176 (dvls27[myo-3p::A-Beta (1-42)::let-851 3tUTR)+rol-6 (su1006] and CL2355 (dvls 50 [pCL45 9snb-1::Abeta 1-42::3t UTR 9 log)+mtl-2::GFP]) were maintained at 16° C. All strains were cultured on solid nematode growth medium (NGM) consisting of 3 g/L NaCl, 2.5 g/L peptone, 5 mg/L cholesterol, 1 mM CaCl2), 1 mM MgSO4, 25 mM KH2PO4, and 17 g/L agar and seeded with OP50 (Escherichia coli strain) as a food supply. The worms were allowed to grow up to the adult stage, and egg carrying worms were used to isolate age-synchronized eggs using the bleaching method (Porta-de-la-Riva et al., 2012). […] (N2 and CL2122) or 16° C. (CL2006, CL4176, and CL2355). All of the strains used were acquired from the University of Minnesota-Caenorhabditis Genetics Center, which is funded by the NIH Office of Research Infrastructure Programs (P40 OD010440).
# To determine the impact of selected compounds on age related decline in brain health, the lifespan of the worms was first measured. The L1 worms were cultured in 96-well plates on S-complete media containing E. coli OP50 and antibiotics (about 10-15 animals per well). […] The 0.6 mM Fluorodeoxyuridine (FUDR; 30 μl) was added to each well after 3 days and animals were monitored every other day for viability. The CL4176 and CL2006 worms were grown at 16° C. and N2 worms were grown at 20° C.
smiles,measurement,setting,value
CC12CCC(C1)C(C)(C)C2O (stereo not drawn) [Fenchol],proteasomal activity,[1],significantly increased
same,number of senescent neuronal cells,[2],significantly reduced
same,Aβ-accumulation,[3],significantly reduced
same,Aβ accumulation,[4],significantly reduced
same,paralytic attacks,[5],decreased
same,increase in intracellular calcium levels,[6],highest increase
same,survival/lifespan,[7]; CL2006 worms overexpressing human Aβ,significantly increased
same,survival/lifespan,[7]; CL4176 worms overexpressing human Aβ,significantly increased
same,lifespan,[7]; wild-type N2 worms,no significant impacts
